Experimental findings from publication PMC11586601 (Journal of Inherited Metabolic Disease, 2024) are described below.

A value given as a limit tells only on which side of the number the result lay.

For data set [1], the target named is T1, cHuNAGS (linker-cleaved) (Homo sapiens, UniProt Q8N159).
T1 sequence (Q8N159 95-534): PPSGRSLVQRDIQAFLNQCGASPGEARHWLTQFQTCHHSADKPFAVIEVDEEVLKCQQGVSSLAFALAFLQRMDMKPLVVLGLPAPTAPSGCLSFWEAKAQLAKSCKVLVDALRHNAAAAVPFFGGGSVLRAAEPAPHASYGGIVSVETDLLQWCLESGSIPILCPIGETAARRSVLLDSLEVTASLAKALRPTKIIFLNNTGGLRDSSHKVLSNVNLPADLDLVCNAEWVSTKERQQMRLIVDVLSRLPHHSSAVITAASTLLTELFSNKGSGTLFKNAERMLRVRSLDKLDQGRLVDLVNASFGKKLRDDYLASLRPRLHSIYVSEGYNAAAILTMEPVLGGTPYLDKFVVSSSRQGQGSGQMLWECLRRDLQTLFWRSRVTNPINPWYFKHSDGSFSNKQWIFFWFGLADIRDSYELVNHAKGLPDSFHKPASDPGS
Kind of data set: biochemical.

Data set [2] has as its target cHuNAGS (linker-cleaved) (Homo sapiens, UniProt Q8N159, V350I). Description: biochemical.
The data set “SEC” concerns the molecule itself. Description: SEC.

As a reminder, the EC50 is the concentration needed to bring the measured effect to its halfway point.

Sequence of cHuNAGS (linker-cleaved) (Homo sapiens, UniProt Q8N159, V350I) (Q8N159 95-534 V350I): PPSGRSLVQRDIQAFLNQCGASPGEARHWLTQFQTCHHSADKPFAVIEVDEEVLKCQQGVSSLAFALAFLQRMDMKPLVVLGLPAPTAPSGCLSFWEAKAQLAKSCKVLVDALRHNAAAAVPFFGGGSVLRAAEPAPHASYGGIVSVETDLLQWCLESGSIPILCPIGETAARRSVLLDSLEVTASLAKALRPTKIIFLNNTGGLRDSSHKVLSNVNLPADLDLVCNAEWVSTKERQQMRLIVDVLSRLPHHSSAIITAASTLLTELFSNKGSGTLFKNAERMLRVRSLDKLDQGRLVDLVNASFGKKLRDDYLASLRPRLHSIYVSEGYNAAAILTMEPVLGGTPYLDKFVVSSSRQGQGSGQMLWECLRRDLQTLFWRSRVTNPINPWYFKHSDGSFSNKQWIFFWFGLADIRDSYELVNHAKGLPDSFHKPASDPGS

As to `N=C(N)NCCC[C@H](N)C(=O)O` [arginine], the EC50 at cHuNAGS (linker-cleaved) [1] is approximately 20 µM; at cHuNAGS (linker-cleaved) [2], more than 4000 µM.

B1: His6-MBP-cHuNAGS chimera (wild-type) (domain or fragment, human)
chain: LEVLFQGPMPPSGRSLVQRDIQAFLNQCGASPGEARHWLTQFQTCHHSADKPFAVIEVDEEVLKCQQGVSSLAFALAFLQRMDMKPLVVLGLPAPTAPSGCLSFWEAKAQLAKSCKVLVDALRHNAAAAVPFFGGGSVLRAAEPAPHASYGGIVSVETDLLQWCLESGSIPILCPIGETAARRSVLLDSLEVTASLAKALRPTKIIFLNNTGGLRDSSHKVLSNVNLPADLDLVCNAEWVSTKERQQMRLIVDVLSRLPHHSSAVITAASTLLTELFSNKGSGTLFKNAERMLRVRSLDKLDQGRLVDLVNASFGKKLRDDYLASLRPRLHSIYVSEGYNAAAILTMEPVLGGTPYLDKFVVSSSRQGQGSGQMLWECLRRDLQTLFWRSRVTNPINPWYFKHSDGSFSNKQWIFFWFGLADIRDSYELVNHAKGLPDSFHKPASDPGS
As for B1, in the data set “SEC”, the binding result is recorded as “binds”.
